Bounds are passed on as bounds.

For ten molecules, Ki results are on record in ChEMBL document CHEMBL1136616, “Carbonic anhydrase inhibitors: SAR and X-ray crystallographic study for the interaction of sugar sulfamates/sulfamides with isozymes I, II and IV” (Bioorg Med Chem Lett, 2003).

One assay concerns the target Carbonic anhydrase 1 (Homo sapiens, UniProt P00915).
In the next assay the target is T1, Carbonic anhydrase 4 (Bos taurus, UniProt Q95323).
T1 sequence (Q95323 whole entry): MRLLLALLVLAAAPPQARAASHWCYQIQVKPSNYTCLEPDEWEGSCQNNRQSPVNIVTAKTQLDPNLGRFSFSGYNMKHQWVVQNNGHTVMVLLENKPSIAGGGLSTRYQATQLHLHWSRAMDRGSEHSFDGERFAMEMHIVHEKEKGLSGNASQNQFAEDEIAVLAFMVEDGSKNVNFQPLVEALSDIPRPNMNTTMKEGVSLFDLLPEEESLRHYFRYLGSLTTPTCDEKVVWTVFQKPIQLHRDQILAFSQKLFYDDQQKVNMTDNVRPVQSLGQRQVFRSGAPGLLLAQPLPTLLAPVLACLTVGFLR

For the next assay, the target named is Carbonic anhydrase 2 (Homo sapiens, UniProt P00918).

Carbonic anhydrase 1, sequence (P00915 whole entry): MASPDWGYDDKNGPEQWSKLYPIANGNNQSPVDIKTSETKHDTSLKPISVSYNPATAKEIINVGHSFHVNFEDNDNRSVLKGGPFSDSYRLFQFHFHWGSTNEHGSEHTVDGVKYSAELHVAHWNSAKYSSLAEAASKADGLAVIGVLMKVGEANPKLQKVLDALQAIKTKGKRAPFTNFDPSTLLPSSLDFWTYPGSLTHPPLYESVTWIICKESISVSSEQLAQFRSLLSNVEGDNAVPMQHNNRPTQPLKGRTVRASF
Description for Carbonic anhydrase 1: Inhibitory activity against human cloned carbonic anhydrase I (hCA I)
Description for Carbonic anhydrase 2: Inhibitory activity against human cloned carbonic anhydrase II (hCA II)
Description for Carbonic anhydrase 4: Inhibitory activity against carbonic anhydrase isolated from bovine lung microsome (bCA IV)

As to `CC1(C)O[C@@H]2[C@@H](CO[C@@]3(C(=O)NS(N)(=O)=O)OC(C)(C)O[C@@H]23)O1`, the Ki on Carbonic anhydrase 1, on Carbonic anhydrase 4 and at Carbonic anhydrase 2 was over 100 µM throughout.
With `CC1(C)OC[C@@H]2O[C@@]3(C(=O)NNS(N)(=O)=O)OC(C)(C)O[C@H]3[C@@H]2O1`, the Ki turned out to be 420 µM at Carbonic anhydrase 1, 33 µM on Carbonic anhydrase 4 and 21 µM on Carbonic anhydrase 2.
Turning to `CC1(C)O[C@@H]2O[C@@H](C(=O)NS(N)(=O)=O)[C@H]3OC(C)(C)O[C@H]3[C@@H]2O1`, the values for the Ki on Carbonic anhydrase 1, at Carbonic anhydrase 4 and on Carbonic anhydrase 2 were over 100 µM, 46 µM and 25 µM, respectively.
Consider `CC1(C)O[C@H]2[C@@H](O1)[C@@H](C(=O)NNS(N)(=O)=O)O[C@@H]1OC(C)(C)O[C@@H]12`, for which the inhibitory constant (Ki) is over 100 µM on Carbonic anhydrase 1, 30 µM on Carbonic anhydrase 4 and 15 µM at Carbonic anhydrase 2.
In the same order, the values of `CC1(C)OC[C@@H]2O[C@@]3(C(=O)NS(N)(=O)=O)OC(C)(C)O[C@H]3[C@@H]2O1` are 0.75 µM, 0.425 µM and 0.068 µM.
In the same order, the values of `CC1(C)O[C@@H]2[C@@H](CO[C@@]3(C(=O)NNS(N)(=O)=O)OC(C)(C)O[C@@H]23)O1` are over 100 µM, over 100 µM and over 100 µM.
Take `CC1(C)OC[C@@H]2O[C@@]3(COC(=O)NS(N)(=O)=O)OC(C)(C)O[C@H]3[C@@H]2O1`: the Ki at Carbonic anhydrase 1 came out at 1.2 µM; on Carbonic anhydrase 4, 0.13 µM; on Carbonic anhydrase 2, 0.071 µM.
The like results for `CC1(C)O[C@@H]2O[C@@H](COS(N)(=O)=O)[C@H]3OC(C)(C)O[C@H]3[C@@H]2O1` were, in that order, 400 µM, 27 µM and 13 µM.
The like results for `CC1(C)O[C@@H]2[C@@H](CO[C@@]3(COC(=O)NS(N)(=O)=O)OC(C)(C)O[C@@H]23)O1` were, in that order, 0.42 µM, 0.045 µM and 0.024 µM.
`NS(=O)(=O)O` [SULFAMATE] displayed a Ki on Carbonic anhydrase 1 of 21 µM.

A word on the Ki: it is a dissociation constant, usually derived from enzyme kinetics or from competition with a known ligand. Lower therefore signals tighter binding.
